Measured values published in ChEMBL document CHEMBL5303766, “Data for DCP probe FHT-2344” (2022).

Legend:
[1] = biological target: T1, Dual specificity mitogen-activated protein kinase kinase 7 (Homo sapiens) (UniProt O14733); assay: MAP2K7 SGC Tm panel (DSF); details: for ΔTm: Compound concentration 10.0 uM
T1 sequence (whole entry): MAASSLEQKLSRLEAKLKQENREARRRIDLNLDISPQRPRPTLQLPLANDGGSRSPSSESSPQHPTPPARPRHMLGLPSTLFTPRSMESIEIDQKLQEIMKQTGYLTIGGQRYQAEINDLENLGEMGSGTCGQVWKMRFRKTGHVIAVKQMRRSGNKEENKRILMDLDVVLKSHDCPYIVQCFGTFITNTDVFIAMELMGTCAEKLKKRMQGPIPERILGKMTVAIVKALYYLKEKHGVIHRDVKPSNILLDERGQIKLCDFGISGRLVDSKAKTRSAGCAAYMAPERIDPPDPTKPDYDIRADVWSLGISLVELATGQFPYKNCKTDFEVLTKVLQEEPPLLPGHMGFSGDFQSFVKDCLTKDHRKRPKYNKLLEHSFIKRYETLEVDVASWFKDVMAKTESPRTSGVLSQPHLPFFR

[2] = biological target: T2, Serine/threonine-protein kinase Nek2 (Homo sapiens) (UniProt P51955); assay: NEK2 SGC Tm panel (DSF); details: for ΔTm: Compound concentration 10.0 uM
T2 sequence (whole entry): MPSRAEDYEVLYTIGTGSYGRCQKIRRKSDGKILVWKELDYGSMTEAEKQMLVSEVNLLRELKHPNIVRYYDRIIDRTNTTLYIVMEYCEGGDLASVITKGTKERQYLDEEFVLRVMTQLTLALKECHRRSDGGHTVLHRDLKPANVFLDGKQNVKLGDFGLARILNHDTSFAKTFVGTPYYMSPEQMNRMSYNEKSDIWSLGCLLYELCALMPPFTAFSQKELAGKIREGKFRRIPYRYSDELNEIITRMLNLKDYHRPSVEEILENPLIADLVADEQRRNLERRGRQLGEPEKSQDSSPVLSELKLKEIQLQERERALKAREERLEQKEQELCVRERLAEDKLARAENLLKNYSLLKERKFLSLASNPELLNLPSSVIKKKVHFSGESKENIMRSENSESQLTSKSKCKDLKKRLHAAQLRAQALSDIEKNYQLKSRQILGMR

[3] = biological target: Histamine H2 receptor (Homo sapiens) (UniProt P25021); details: Compound concentration 10.0 uM
Chain of Histamine H2 receptor (Homo sapiens) (P25021 whole entry): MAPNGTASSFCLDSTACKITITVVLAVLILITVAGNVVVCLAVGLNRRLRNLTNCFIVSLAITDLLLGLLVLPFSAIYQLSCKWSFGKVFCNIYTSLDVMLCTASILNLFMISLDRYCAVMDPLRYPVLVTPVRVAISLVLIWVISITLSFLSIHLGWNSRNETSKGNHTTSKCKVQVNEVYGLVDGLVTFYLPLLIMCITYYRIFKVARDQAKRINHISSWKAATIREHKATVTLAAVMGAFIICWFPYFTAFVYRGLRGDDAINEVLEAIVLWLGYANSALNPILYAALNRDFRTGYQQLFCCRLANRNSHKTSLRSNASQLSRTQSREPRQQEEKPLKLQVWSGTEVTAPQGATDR

[4] = biological target: Muscarinic acetylcholine receptor M5 (Homo sapiens) (UniProt P08912); details: Compound concentration 10.0 uM
Chain of Muscarinic acetylcholine receptor M5 (Homo sapiens) (P08912 whole entry): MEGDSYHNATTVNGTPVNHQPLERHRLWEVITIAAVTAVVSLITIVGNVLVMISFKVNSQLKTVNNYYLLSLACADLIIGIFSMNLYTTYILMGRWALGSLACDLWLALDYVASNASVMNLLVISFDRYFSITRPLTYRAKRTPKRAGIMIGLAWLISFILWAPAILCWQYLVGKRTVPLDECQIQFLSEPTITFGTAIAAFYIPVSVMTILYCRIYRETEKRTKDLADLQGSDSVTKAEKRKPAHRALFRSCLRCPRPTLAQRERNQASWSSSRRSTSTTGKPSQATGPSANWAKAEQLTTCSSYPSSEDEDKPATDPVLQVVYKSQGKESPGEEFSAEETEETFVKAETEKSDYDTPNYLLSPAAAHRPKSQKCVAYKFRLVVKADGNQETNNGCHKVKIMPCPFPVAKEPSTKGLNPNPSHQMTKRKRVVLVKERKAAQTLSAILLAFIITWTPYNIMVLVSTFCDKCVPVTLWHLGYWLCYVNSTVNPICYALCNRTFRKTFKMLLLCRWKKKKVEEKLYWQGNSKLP

[5] = biological target: T3, Serine/threonine-protein kinase 17A (Homo sapiens) (UniProt Q9UEE5); assay: STK17A SGC Tm panel (DSF); details: for ΔTm: Compound concentration 10.0 uM
T3 sequence (whole entry): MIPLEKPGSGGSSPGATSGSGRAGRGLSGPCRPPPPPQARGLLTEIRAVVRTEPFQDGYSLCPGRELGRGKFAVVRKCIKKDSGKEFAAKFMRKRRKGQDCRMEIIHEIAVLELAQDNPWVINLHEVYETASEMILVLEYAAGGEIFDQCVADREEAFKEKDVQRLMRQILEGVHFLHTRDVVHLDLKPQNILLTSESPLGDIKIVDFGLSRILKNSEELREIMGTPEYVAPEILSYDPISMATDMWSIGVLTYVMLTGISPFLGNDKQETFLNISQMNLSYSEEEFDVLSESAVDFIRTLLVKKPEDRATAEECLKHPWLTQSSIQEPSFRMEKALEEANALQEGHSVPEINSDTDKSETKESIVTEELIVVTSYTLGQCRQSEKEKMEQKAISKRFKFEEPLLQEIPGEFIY

[6] = biological target: Muscarinic acetylcholine receptor M3 (Homo sapiens) (UniProt P20309); details: Compound concentration 10.0 uM
Chain of Muscarinic acetylcholine receptor M3 (Homo sapiens) (P20309 whole entry, looked up): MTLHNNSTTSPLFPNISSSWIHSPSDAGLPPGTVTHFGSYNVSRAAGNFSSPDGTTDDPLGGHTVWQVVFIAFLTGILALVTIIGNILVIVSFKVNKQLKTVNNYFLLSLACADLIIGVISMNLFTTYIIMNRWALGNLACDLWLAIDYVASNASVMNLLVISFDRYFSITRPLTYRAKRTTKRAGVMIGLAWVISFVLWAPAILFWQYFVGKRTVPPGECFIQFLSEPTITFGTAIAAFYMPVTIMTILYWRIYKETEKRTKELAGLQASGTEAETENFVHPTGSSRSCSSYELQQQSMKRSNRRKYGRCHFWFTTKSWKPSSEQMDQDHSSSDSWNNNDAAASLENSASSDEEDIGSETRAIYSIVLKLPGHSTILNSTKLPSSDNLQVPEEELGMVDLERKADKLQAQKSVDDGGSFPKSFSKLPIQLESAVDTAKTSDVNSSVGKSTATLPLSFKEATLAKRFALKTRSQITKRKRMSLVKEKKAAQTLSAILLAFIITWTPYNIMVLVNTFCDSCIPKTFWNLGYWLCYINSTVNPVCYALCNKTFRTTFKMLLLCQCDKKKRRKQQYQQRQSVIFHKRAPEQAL

[7] = biological target: T4, Serine/threonine-protein kinase 3 (Homo sapiens) (UniProt Q13188); assay: STK3 SGC Tm panel (DSF); details: for ΔTm: Compound concentration 10.0 uM
T4 sequence (whole entry): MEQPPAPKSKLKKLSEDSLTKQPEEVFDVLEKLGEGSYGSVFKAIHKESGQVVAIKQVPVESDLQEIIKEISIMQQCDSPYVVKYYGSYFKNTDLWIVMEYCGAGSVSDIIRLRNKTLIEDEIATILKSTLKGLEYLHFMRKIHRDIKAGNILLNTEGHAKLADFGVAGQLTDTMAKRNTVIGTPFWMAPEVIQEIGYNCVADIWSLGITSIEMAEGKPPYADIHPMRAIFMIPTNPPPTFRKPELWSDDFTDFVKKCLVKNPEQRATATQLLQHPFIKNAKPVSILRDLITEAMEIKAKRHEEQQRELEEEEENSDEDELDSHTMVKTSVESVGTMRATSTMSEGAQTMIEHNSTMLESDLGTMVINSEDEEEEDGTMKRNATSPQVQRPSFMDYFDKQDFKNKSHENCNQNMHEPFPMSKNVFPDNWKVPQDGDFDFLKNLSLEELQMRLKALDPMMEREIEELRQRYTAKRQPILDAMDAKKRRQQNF

[8] = biological target: Fibroblast growth factor receptor 1 (Homo sapiens) (UniProt P11362); assay: FGFR1 SGC Tm panel (DSF); details: for ΔTm: Compound concentration 10.0 uM
Chain of Fibroblast growth factor receptor 1 (Homo sapiens) (P11362 22-822 limits assumed): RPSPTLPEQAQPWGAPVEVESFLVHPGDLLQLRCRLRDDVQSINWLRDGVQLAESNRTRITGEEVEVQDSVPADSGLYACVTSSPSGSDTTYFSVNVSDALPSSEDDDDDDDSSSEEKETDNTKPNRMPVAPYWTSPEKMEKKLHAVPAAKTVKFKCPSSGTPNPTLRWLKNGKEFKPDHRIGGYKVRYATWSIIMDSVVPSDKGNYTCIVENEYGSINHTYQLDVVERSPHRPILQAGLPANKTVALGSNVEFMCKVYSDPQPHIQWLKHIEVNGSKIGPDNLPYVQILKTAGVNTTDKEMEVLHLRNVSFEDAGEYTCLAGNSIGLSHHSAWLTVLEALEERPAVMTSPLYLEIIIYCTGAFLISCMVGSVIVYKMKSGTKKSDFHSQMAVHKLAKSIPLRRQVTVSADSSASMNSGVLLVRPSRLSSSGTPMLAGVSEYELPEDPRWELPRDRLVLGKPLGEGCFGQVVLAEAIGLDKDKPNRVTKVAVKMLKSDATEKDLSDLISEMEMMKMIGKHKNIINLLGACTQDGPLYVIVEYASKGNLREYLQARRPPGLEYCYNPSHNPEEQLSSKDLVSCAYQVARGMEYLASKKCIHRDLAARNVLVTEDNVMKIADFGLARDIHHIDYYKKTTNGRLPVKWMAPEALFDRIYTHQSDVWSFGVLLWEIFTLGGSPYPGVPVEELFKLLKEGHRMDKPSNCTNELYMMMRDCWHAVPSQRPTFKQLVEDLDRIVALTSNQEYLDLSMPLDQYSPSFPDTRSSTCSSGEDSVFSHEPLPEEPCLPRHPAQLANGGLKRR

[9] = biological target: Serine/threonine-protein kinase PAK 4 (Homo sapiens) (UniProt O96013); assay: PAK4 SGC Tm panel (DSF); details: for ΔTm: Compound concentration 10.0 uM
Chain of Serine/threonine-protein kinase PAK 4 (Homo sapiens) (O96013 whole entry, looked up): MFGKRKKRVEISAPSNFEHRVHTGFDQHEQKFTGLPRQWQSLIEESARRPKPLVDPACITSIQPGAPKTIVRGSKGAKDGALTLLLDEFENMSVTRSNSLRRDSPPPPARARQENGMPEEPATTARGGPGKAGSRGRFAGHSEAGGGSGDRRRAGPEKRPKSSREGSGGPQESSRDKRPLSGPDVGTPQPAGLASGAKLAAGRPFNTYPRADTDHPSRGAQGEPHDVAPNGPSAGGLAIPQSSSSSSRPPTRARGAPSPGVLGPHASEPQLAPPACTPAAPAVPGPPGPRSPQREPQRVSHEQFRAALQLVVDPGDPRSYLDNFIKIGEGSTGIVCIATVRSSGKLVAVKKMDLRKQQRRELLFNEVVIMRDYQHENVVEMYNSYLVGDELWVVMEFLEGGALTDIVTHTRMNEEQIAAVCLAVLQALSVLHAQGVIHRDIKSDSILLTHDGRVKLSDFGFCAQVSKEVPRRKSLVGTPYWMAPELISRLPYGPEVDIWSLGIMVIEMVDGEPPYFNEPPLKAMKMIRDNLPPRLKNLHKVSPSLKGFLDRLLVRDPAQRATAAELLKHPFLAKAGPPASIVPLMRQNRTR

[10] = biological target: Sodium-dependent noradrenaline transporter (Homo sapiens, UniProt P23975); details: Compound concentration 10.0 uM
Chain of Sodium-dependent noradrenaline transporter (P23975 whole entry): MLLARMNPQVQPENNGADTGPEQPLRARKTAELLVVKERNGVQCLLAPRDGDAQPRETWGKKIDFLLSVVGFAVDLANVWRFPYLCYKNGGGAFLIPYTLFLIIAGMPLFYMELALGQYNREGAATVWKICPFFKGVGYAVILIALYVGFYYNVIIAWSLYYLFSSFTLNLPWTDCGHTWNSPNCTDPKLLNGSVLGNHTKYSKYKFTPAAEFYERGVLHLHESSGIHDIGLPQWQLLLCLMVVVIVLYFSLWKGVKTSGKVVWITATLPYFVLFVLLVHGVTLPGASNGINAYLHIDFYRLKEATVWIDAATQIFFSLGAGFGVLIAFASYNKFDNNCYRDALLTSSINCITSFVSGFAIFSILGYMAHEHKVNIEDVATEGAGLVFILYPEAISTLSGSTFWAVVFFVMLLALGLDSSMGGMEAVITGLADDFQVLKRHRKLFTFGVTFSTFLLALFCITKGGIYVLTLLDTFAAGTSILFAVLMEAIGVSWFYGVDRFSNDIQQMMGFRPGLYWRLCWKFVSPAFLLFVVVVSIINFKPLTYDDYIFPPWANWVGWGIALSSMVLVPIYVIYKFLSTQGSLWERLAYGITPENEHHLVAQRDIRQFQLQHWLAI

[11] = biological target: STE20-like serine/threonine-protein kinase (Homo sapiens) (UniProt Q9H2G2); assay: SLK SGC Tm panel (DSF); details: for ΔTm: Compound concentration 10.0 uM
Chain of STE20-like serine/threonine-protein kinase (Homo sapiens) (Q9H2G2 whole entry, looked up): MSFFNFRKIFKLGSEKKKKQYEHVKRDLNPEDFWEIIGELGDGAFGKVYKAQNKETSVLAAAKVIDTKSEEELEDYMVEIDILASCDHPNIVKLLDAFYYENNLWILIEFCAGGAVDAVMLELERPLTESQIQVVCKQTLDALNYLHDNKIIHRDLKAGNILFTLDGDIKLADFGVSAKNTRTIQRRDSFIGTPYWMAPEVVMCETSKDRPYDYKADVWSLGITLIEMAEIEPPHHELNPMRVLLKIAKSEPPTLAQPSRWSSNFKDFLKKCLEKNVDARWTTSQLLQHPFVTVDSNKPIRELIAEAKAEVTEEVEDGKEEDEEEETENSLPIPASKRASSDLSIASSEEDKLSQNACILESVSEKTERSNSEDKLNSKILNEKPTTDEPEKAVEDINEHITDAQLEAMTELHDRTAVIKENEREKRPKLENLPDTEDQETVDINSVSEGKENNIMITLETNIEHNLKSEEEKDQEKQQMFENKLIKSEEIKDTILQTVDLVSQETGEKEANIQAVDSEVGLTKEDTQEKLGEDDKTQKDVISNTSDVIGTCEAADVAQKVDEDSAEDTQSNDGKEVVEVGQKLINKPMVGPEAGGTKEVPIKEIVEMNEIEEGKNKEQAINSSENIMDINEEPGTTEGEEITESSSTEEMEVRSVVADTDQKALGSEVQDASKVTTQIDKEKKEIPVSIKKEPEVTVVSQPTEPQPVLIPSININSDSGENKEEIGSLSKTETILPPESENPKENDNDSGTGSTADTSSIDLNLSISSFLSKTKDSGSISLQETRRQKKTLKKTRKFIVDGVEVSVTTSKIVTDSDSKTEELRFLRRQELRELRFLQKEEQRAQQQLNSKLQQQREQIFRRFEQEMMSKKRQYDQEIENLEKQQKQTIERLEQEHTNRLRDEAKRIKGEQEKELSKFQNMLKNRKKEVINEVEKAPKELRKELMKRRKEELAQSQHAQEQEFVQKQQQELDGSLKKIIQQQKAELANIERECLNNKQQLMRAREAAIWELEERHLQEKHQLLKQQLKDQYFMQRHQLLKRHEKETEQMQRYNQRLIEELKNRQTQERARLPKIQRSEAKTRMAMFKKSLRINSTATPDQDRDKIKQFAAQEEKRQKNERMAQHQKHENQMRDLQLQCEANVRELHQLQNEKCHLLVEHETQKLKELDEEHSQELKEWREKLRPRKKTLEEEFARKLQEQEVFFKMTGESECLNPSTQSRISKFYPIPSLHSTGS

Row | delta Tm Staurosporine positive control [1] | ΔTm [1] | delta Tm Staurosporine positive control [2] | ΔTm [2] | inhibition [3] | inhibition [4] | delta Tm Staurosporine positive control [5] | ΔTm [5] | inhibition [6] | delta Tm Staurosporine positive control [7] | ΔTm [7] | delta Tm Staurosporine positive control [8] | ΔTm [8] | delta Tm Staurosporine positive control [9] | ΔTm [9] | inhibition [10] | delta Tm Staurosporine positive control [11] | ΔTm [11] | SMILES
1 | 6.68 | 0.168 | 3.7 | 0.182 | 22.6% | 0.52% | 12.6 | 0.566 | 9.46% | 15.5 | 1.34 | 5.65 | -0.0579 | 13.4 | -0.0385 | 45.5% | 12.2 | 1.33 | COC[C@H](NC(=O)c1ccn(S(C)(=O)=O)c1)C(=O)Nc1nc(-c2cccc(-c3ccn(C)n3)c2)cs1
2 | 6.68 | 0.97 | 3.7 | -0.146 | 4.24% | 4.67% | 12.6 | 1.03 | 40.1% | 15.5 | 0.324 | 5.65 | -0.166 | 13.4 | -0.0631 | 69.8% | 12.2 | 0.23 | C[C@H](NC(=O)c1cn(C2(C#N)CC2)cn1)C(=O)Nc1nc(-c2cccc(-c3ccn(C)n3)c2)cs1
